The values that follow come from a melting point compilation (Tetko et al.; mined from patent text by program, amines drawn as free bases though some values may be those of a salt).

For orientation: melting point means the temperature, or range, at which the solid turns liquid. As to `C#CCOc1cc(C(=O)O)cc(N)c1C(=O)c1ccccc1`, the melting point came out at 192 °C. For the molecule `CCN1C(=O)C(=S2CN(CC)c3ccccc32)SC1=S` (centres undefined), the melting point was in the range of 246 to 248 °C. Molecule `COC(=O)c1ccc2c(c1)S(=O)(=O)c1ccccc1NC2=O` registered a melting point of 300 to 302 °C. For `COC(OC)c1cnc(C)nc1N` the value was 102 to 104 °C. Molecule `COC(CN1C(=O)CN=C(c2ccccc2)c2cc(Cl)ccc21)OC` yielded a melting point of 117 to 119 °C. For `Cc1ccc(C(=O)c2cc(-c3ccncc3)c(N3CCOCC3)s2)cc1` the value was 144 to 145 °C.

In the case of `C=CCOC(=O)c1ncn2c1[C@@H]1CCCN1C(=O)c1c(Cl)cccc1-2`, the melting point lay within 122 to 123 °C. The molecule `CCCC(=O)NCCC1CCc2cc(OC)ccc21` (single isomer, unassigned; (-)) gave a melting point of 79 to 80 °C. `C=CCOC(=O)NC(C)(C)c1ccc(-c2nc(Nc3ccc(CCN4CCOCC4)cc3)ncc2Cl)cc1` displayed a melting point of 65 to 69 °C. `C[C@H](O)C(=O)Nc1c(C(=O)c2ccccc2)[nH]c2cc(Cl)ccc12` came in with a melting point of 185 to 190 °C.

With `CC1(C(=O)N2CCC(n3c(=O)[nH]c4ccccc43)CC2)OCc2ccccc2-n2cccc21` (centres undefined), the melting point is 208 to 210 °C. For `O=C(Cn1cnc2ccccc21)c1ccc(Cl)cc1Cl`, the melting point lay within 130 to 132 °C. Molecule `S=C1N=c2cc(Cl)c(Cl)cc2=N1` came in with a melting point of 328 to 330 °C. In turn, `CCCn1nc(C)c(NC(C)=O)c1C#N` registered a melting point of 129 to 131 °C.

`COc1ccc(N2C(=O)N(c3ccccc3)c3nc(Nc4ccccc4)ncc3C2C)cc1` (centres undefined) gave a melting point of 222 to 234 °C. Regarding `O=C(O)c1ccc(OCCCCCCc2cccc(OCc3ccccc3)c2OCc2ccccc2)c(Cl)c1`, the melting point lay in the range of 87 to 89 °C. For `O=P1(NCCCl)OCCCN1CCBr` (centres undefined), the melting point lay in the range of 50 to 51 °C. `CCN(C(=O)c1cnc(N2CC(C)NC2=O)nc1N)c1cccc(C(F)(F)F)c1` (centres undefined) displayed a melting point of 207 to 208 °C. In turn, `CS(=O)(=O)Nc1cccc(-c2cccc(-c3nc(-c4ccc(C(F)(F)F)cc4)cc(C(F)(F)F)n3)c2)c1` returned a melting point of 191 °C.

As to `COc1cccc(-c2c(Cl)c(CN3CCCCC3)nc3sc4c(c23)CCN(Cc2ccccc2)C4)c1OC`, the melting point was in the range of 173 to 174 °C. For `CC(=O)OCC(=O)NCc1cccc2c1C(=O)N(C1CCC(=O)NC1=O)C2=O` (centres undefined) the value was 108 to 110 °C; for `COc1ccc2c(c1)OCN(CCO[N+](=O)[O-])C2=O`, 97 to 99 °C. In the case of `N#CC1CC(c2c(F)cccc2F)=NC1c1ccc(-c2ccc(OC(F)(F)F)cc2)cc1` (centres undefined), the melting point is 145 °C.

`O=C1CCCc2cc(OCc3cncnc3)ccc21` registered a melting point of 146 to 147 °C. `CN1CC[C@@H](c2c(O)cc(O)c3c(=O)cc(-c4ccccc4F)oc23)[C@@H]1CO` displayed a melting point of 206 to 208 °C.

As to `O=C(CCCCCN1CCN(c2cccc(C(F)(F)F)c2)CC1)N1Cc2ccc(C3=NCCO3)cc2C1`, the melting point was determined as 129 °C.

The molecule `CN(C)CCOc1ccccc1-c1cc(NC(N)=O)c(C(N)=O)s1` gave a melting point of 180 °C. Molecule `Cc1c(S(=O)(=O)C[N+](=O)[O-])cc2c(c1C)OC(C)(C)CC2` came in with a melting point of 98.5 to 99.5 °C. In turn, `COc1ccc2c(n1)c(CCNC(=O)c1ccco1)c1n2CCCO1` yielded a melting point of 139 to 140 °C. `Fc1ccc(C(F)(F)F)cc1Nc1nc2ccccc2o1` displayed a melting point of 164 to 165 °C. Molecule `COc1ccc(/C=C/c2nc3c(c(=O)n(C)c(=O)n3C)n2C)c(C)c1C` registered a melting point above 275 °C. The molecule `Nc1ccccc1S(=O)c1nc2cc(Cl)ccc2[nH]1` (centres undefined) yielded a melting point of 176 to 178 °C.

Consider `Clc1ccc(-c2ccc3nncn3n2)cc1`, for which the melting point fell in the range of 216 to 218 °C. Under `C/C(=C\C(C)O)c1ccc(C2CCCCC2)cc1` (centres undefined) stands 67.5 to 68 °C. The molecule `CC(C)(C)OC(=O)N1CCCC1c1ccnc(-c2nc(=O)c3ccccc3s2)c1` (centres undefined) yielded a melting point of 195 to 196 °C.

As for `CCCCc1nc2c(N)nc3ccc(OCCC4CCN(S(C)(=O)=O)CC4)cc3c2n1C`, the melting point fell in the range of 198 to 200 °C.

`Nc1nc(N)c2cc(Cc3ccc(Cl)c(Cl)c3)ccc2n1`: the melting point was in the range of 150 to 151 °C. In the case of `CCOC(=O)[C@H](Cc1ccc(-c2c(C(F)(F)F)cc(C)n(C)c2=O)cc1)NC(=O)c1c(Cl)cccc1Cl`, the melting point was in the range of 86 to 91 °C. For `O=c1cnn(-c2ccc(C(c3ccc(Cl)cc3)c3cc(-c4ccccc4)cs3)c(Cl)c2)c(=O)[nH]1` (centres undefined) the value was 90 °C; for `COc1ccc(Cl)cc1NC(=NN)c1cc(C(F)(F)F)cc(C(F)(F)F)c1`, 117 to 120 °C. `O=C(NS(=O)(=O)NCCCN1CCC(Oc2ccc(Cl)c(Cl)c2)CC1)c1ccccc1` gave a melting point of 93 to 106 °C. Molecule `COc1cc2c(cc1OCc1ccccc1)C=C(C(=O)O)CCC2` gave a melting point of 172 to 173 °C. The molecule `CC(C)(C)c1ccc(C(O)CCCN2CCC(C3(O)c4ccccc4CCc4ccccc43)CC2)cc1` (centres undefined) showed a melting point of 142 to 144 °C.

Turning to `OC(c1ccc(Cl)cc1Cl)C(Oc1ccc(Cl)cc1)n1ccnc1` (centres undefined), the melting point was 108 to 110 °C.

Turning to `COc1cc2cc3c(=O)c(C#N)c[nH]c3nc2cc1OC`, the melting point is above 300 °C. `Cc1nc(N2CCN(Cc3ccc(OC(F)(F)F)cc3)C2=O)sc1C(N)=O`: the melting point was 185 to 187 °C.

`O=S1(=O)CCCSC(S)=N1` registered a melting point of 134 °C. In turn, `CC(C)(C)OC(=O)NC(C)(C)c1ccc(C(=O)O)cc1` returned a melting point of 205 to 208 °C. For `O=C(O)CCC(=NO)c1ccc(-c2ccc(Cl)s2)cc1` the value was 172 to 174 °C; for `O=C(CCC(=O)OC(=O)CCC(=O)OCc1ccccc1)OCc1ccccc1`, 70 to 71 °C; for `N=C(NNC(=O)c1ccccc1O)C(Cl)(Cl)Cl`, 168 to 169 °C. As for `CC(C)NC(=O)CCCCCCI`, the melting point was in the range of 46 to 51 °C. As to `O=c1ccc(-c2ccc(F)cc2)nn1CCF`, the melting point was 145 °C. `CN(C)C(=O)C1(n2ccc(-c3ccccc3)n2)CC1`: the melting point fell in the range of 96 to 99 °C. With `COC(=O)C1=C(C)NC(=O)NC1c1cccc(N)c1` (centres undefined), the melting point fell in the range of 222 to 234 °C. Regarding `CC12CC(CCCCCCl)C3c4ccc(O)cc4CCC3C1CCC2O` (centres undefined), the melting point stood at 159 °C. For `COC(=O)CC1Sc2ccc(N)cc2CN(CCc2ccccc2)C1=O` (centres undefined), the melting point is 126 to 129 °C. For `O=C(NCCO)c1cccc(-c2ccc3c(c2)N(c2ccc(Cl)c(Cl)c2)CC3)c1` the value was 167 to 168 °C; for `CCOC(=O)c1cnc(-c2cc3cccc([N+](=O)[O-])c3n2COC)s1`, 92 to 93 °C. Under `Nc1nc2c(ncn2OCCCCP(=O)(O)O)c(=O)[nH]1` stands 208 °C; under `Nc1cc(Sc2ccc3c(C(=O)Nc4cccc(OC(F)(F)F)c4)cccc3c2)ncn1`, 197 to 199 °C; under `CCOC(=O)C1=CC(=O)CC(c2ccc(Cl)cc2)N1` (centres undefined), 93 to 94 °C. Under `CCOC(=O)C(C)(C)n1c(=O)[nH]c2cc(F)c(F)cc2c1=O` stands 166 to 168 °C. `Cc1cccc(-c2nc(NC(=O)c3ccc(C(=O)O)cc3)sc2-c2ccncn2)c1` had a melting point of 380 to 381 °C. Take `CNCCOc1ccc(C(=C(CCO)c2ccccc2)c2ccccc2)cc1`: the melting point lay within 134 to 139 °C. `CC(=O)n1c(C)c(-c2ccc(F)cc2)c2cccnc21` returned a melting point of 84 to 87 °C. Turning to `NCCOc1cc(-c2ccccn2)nc(-c2ccccn2)c1`, the melting point fell in the range of 134 to 137 °C.

The molecule `COc1ccc(N2CCN(Cc3ccc(NC(=O)/C=C/c4cccc(-c5ccc(C)cc5)c4)cc3)CC2)cc1` yielded a melting point of 207 to 208 °C.

The molecule `c1ccc2c(c1)CCc1c(CN3CCN(c4ccc5ccccc5n4)CC3)n[nH]c1-2` returned a melting point of 154 to 155 °C. As for `CC(=O)Nc1ccc(S(=O)(=O)NCC2CCN(C[C@H]3COc4ccc5[nH]ccc5c4O3)CC2)cc1`, the melting point lay within 133 to 134 °C. With `O=C(O)COc1ccc2cc(-c3oc4ccccc4c3C(=O)c3ccccc3)ccc2c1`, the melting point was 178 to 181 °C.

Consider `COC(=O)NC1=NCC(c2ccccc2)N1C` (centres undefined), for which the melting point lay within 145 to 147 °C.

Molecule `COc1cn(-c2ccc(C3CCOCC3)cc2F)nc(-c2ccnn2-c2ccccc2)c1=O` gave a melting point of 187 to 189 °C. `CC(C)(C)OC(=O)[C@@H]1CCCN1C(=O)CNS(=O)(=O)c1cccc2cccnc12` yielded a melting point of 150 to 153 °C. For `CCOC(=O)C=Cc1ccc(NC(=O)Oc2ccccc2)cc1` the value was 136 to 138 °C. The molecule `CCCCCCCCCCCCCCCCN=C=O` displayed a melting point of 107 to 109 °C. In turn, `Fc1ccc2nc(-c3ccccc3)cc(OCC3CO3)c2c1` (racemic) came in with a melting point of 118 to 120 °C. Molecule `COc1cc(OC)c2c3c(oc2c1)CC(C(=O)O)CC3` (centres undefined) came in with a melting point of 194 to 196 °C. For `O=C1/C(=C/c2c[nH]c3ncc(Cl)cc23)N=C(Oc2ccccc2)N1c1ccccc1` the value was 287 °C; for `CC(=O)Nc1ccccn1`, 155 to 156 °C.

Take `NC(=O)c1cc(Cl)c(Cl)cc1C(=O)NCCN1CCC(c2noc3cc(F)ccc23)CC1`: the melting point fell in the range of 132 to 134 °C. In turn, `CC(C)c1ccc2c(c1)C(c1ccc(Cl)c(Cl)c1)Cc1cnc(N)nc1-2` (centres undefined) yielded a melting point of 174 to 176 °C.

Molecule `CCOCc1nc2c(N)nc3ccccc3c2n1CC1(O)CCN(C(=O)Nc2ccccc2)CC1` displayed a melting point of 184 to 186 °C. Regarding `COc1ccccc1NS(=O)(=O)c1ccc([N+](=O)[O-])cc1[N+](=O)[O-]`, the melting point fell in the range of 172 to 173 °C. Molecule `NC(=O)C=Cc1cccs1` displayed a melting point of 153 °C. The molecule `COc1ccc(S(=O)(=O)Cl)cc1N1CCN(C(=O)C(F)(F)F)CC1` returned a melting point of 125 to 127 °C. Molecule `Oc1ccccc1-c1nc2sc(-c3ccccc3O)nc2s1` showed a melting point of 300 °C. `O=C(c1c(F)cccc1F)N1COCN(c2ccc(SC(F)(F)C(F)(F)F)cc2F)C1=O` came in with a melting point of 47 to 50 °C. Take `COC(=O)c1sc(C)c2[nH]c(C(F)(F)C(F)(F)F)nc12`: the melting point is 156 to 157 °C.
